# Experimental data: patent US4550186A, “Binuclear copper (II) carboxylates formed from amine-carboxyboranes” (Duke University, priority 1983, dated 1985)
# Biological target: T1, ATP Dependent Citrate Lyase (Mus musculus, UniProt Q91V92)
# T1 construct: 10% homogenates of CF1 male mouse liver; from tissue; host or cells: CF1 male mouse liver, 10% homogenate
# T1 sequence (Q91V92 1-1091): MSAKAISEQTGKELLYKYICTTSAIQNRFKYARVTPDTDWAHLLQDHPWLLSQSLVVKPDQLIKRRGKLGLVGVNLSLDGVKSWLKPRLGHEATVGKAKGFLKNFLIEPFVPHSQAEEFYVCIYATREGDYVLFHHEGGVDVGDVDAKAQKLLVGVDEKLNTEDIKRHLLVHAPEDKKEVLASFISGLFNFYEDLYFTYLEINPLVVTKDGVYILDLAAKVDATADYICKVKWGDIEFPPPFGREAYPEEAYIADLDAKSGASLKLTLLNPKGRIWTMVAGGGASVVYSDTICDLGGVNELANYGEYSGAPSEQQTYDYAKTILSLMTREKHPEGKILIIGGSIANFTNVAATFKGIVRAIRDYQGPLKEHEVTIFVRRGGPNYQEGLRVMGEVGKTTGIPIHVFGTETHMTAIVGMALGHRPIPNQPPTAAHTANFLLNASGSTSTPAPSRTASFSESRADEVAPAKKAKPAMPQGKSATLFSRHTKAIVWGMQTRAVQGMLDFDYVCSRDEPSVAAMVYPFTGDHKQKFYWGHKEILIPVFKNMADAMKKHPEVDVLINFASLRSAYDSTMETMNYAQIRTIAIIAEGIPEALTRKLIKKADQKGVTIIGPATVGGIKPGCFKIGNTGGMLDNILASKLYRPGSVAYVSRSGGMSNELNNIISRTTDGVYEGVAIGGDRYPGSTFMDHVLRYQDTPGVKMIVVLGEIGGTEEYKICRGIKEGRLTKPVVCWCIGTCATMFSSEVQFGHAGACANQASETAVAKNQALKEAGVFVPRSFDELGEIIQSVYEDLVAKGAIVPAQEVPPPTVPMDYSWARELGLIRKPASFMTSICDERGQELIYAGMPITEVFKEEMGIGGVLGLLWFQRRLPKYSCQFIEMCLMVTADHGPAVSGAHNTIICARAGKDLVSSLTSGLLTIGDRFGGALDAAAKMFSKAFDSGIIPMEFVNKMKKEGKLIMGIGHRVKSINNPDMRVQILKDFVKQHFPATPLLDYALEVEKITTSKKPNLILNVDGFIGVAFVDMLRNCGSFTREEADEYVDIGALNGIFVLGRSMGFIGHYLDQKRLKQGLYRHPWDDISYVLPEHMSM
# Test: In vitro liver enzyme study: ATP dependent citrate lyase
# Format: biochemical
# Conditions: in vitro CF1 liver, 30 min
# Experimental: In vitro enzymatic studies were determined using 10% homogenates of CF1 male mouse liver with 50-200 μM of test drugs. In vivo enzymatic studies were determined using 10% homogenates of liver from CF1 male mice obtained after administering the agents for 16 days at a dose ranging from 2.5-20 mg/kg/day intraperitoneally. The liver homogenates for both in vitro and in vivo studies were prepared in 0.25M sucrose and 0.001M (ethylenedinitrilo)tetraacetic acid. Acetyl coenzyme A synthetase and adenosine triphosphate dependent citrate lyase activities were determined spectrophotometrically at 540 nm as the hydroxylamate of acetyl coenzyme A formed after 30 min at 37° C. Mitochondrial citrate exchange was determined by the procedure of Robinson et al [Eur. J. Biochem., 216, 63 (1970)] using ^14 C-sodium bicarbonate (41 mCi/mmol) incorporated into mitochondrial ^14 C-citrate after isolating rat mitochondria (9000 g×10 min) from the homogenates. The exchanges of the ^14 C-citrate were determined after incubating the mitochondrial fraction which was loaded with labeled citrate and test drugs for 10 min. Then the radioactivity was measured in the mitochondrial and supernantant fractions in scintillation fluid and expressed as a percentage. Cholesterol side chain oxidation was determined by the method of Kritchevsky and Tepper [Artherosclerosis, 18, 93 (1973)] using (26-^14 C) cholesterol (50 mCi/mmol) and mitochondria isolated from rat liver homogenates. […] Fatty acid synthetase activity was determined by the method of Brady et al [J. Biol. Chem., 235, 3093 (1960)] using [2-^14 C] malonyl-coenzyme A (37.5 mCi/mmol) which was incorporated into newly synthesized fatty acids that were extracted with ether and counted. Acyl transferase activity was determined with glycerol-3phosphate [L-2-^3 H(N)] […] HCl and counted. Phosphatidate phosphohydrolase activity was measured as the inorganic phosphate released after 30 min from phosphatidic acid by the method of Mavis et al [J. Lipid Res., 19, 467 (1978)]. […]
substance,measurement,setting,value
{Cu[(CH3)3 N.BH2 CO2 ]2.(CH3)3 N.BH2 COOH} [Compound I],ATP Dependent Citrate Lyase,50 μM,110 ± 6 Percent Control
same,ATP Dependent Citrate Lyase,100 μM,98 ± 5 Percent Control
same,ATP Dependent Citrate Lyase,200 μM,105 ± 7 Percent Control
